Earlier results in patent US12005094B2, “Inhibitor of inflammatory conditions” (Compton Developments Ltd., priority 2009, dated 2024).

Experiments:
[1] = system: EAE; conditions: Clomipramine vs vehicle control, divergent from day 10
[2] = system: lipoxygenase products
[3] = system: skin edema and hyperplasia; conditions: topical administration
[4] = system: antigen-induced arthritis; conditions: oral administration
[5] = system: ear edema; conditions: topical

| effect on lipoxygenase products [2] | Compound | onset of disease symptoms (average EAE scores) [1] | skin edema and hyperplasia [3] | reduction in paw swelling [4] | PGE2 [5] | ear edema [5] | nitrite release [5] |
| --- | --- | --- | --- | --- | --- | --- | --- |
| – | CN(C)CCCN1c2ccccc2CCc2ccc(Cl)cc21 [Clomipramine] | delayed | – | – | – | – | – |
| no effect on lipoxygenase products | C=C(C)[C@@H]1CC[C@]2(C)CC[C@]3(C)[C@H](CC[C@@H]4[C@@]5(C)CC[C@H](O)C(C)(C)[C@@H]5CC[C@]43C)[C@@H]12 [Lupeol, lupeol] | – | significantly inhibited skin edema and hyperplasia | 39% | significant reduction in PGE2 | suppressed ear edema | weaker inhibition of nitrite release |
